Results on 36 compounds are retold here after patent US11802133B2, “Heterocyclic compounds as monoacylglycerol lipase inhibitors” (Hoffmann-La Roche Inc., priority 2018, dated 2023).

pIC50: −log10 of the molar value.

This assay deals with MAGL (Homo sapiens (Human), UniProt Q99685). Briefly: 2-AG assay: MAGL inhibitory activity by hydrolysis of 2-arachidonoylglycerol to arachidonic acid (mass spectrometry). Format: biochemical. The note with it: measured in 2-AG assay (footnote [b]); 8 μM 2-arachidonoylglycerol. As for the experimental part: Alternatively, compounds were profiled for MAGL inhibitory activity by determining the enzymatic activity by following the hydrolysis of the natural substrate 2-arachidonoylglycerol resulting in arachidonic acid, which can be followed by mass spectrometry. This assay is hereinafter abbreviated “2-AG assay”.
Chain of MAGL (Q99685 whole entry, species assumed): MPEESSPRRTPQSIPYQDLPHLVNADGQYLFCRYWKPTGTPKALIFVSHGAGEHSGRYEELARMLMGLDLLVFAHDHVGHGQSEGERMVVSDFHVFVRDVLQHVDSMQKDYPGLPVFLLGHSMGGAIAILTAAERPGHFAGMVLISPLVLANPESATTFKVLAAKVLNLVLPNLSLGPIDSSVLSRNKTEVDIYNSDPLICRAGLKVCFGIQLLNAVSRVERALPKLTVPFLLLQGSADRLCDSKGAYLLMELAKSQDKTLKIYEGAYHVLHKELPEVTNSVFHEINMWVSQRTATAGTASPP
A C18 SPE cartridge (G9205A) was used in an acetonitrile/water liquid setup. […] The activity of the compounds was calculated based on the ratio of intensities [arachidonic acid/d8-arachidonic acid].
What is called pIC50 is −log10 of the IC50, conventionally taken in molar units. In turn, `O=C1CO[C@H]2CCN(C(=O)N3CC(Oc4cccc(C5CC5)c4Cl)C3)C[C@H]2N1` [Example 259] had a pIC50 of 7.82.

In turn, `O=C1CO[C@H]2CCN(C(=O)N3CCC(Cc4nc5ccncc5o4)CC3)C[C@H]2N1` [Example 124] had a negative-log IC50 (pIC50) of 5.99.

For `O=C1CO[C@H]2CCN(C(=O)N3CCCC(Cc4ccc(C(F)(F)F)cc4)CC3)C[C@H]2N1` (stereo partly drawn) [Example 142], the pIC50 is 7.12.

`O=C1CO[C@H]2CCN(C(=O)N3CC(OCc4ccc(F)cc4C(F)(F)F)C3)C[C@H]2N1` [Example 280] gave a pIC50 of 7.39. Compared with the last compound, the pIC50 is 0.27 log units higher.

`O=C1CO[C@H]2CCN(C(=O)N3CC(COc4ccc(C(F)(F)F)c(F)n4)C3)C[C@H]2N1` [Example 223, (4aR,8aS)-6-[3-[[6-Fluoro-5-(trifluoromethyl)-2-pyridyl]oxymethyl]azetidine-1-carbonyl]-4,4a,5,7,8,8a-hexahydropyrido[4,3-b][1,4]oxazin-3-one] had a pIC50 of 7.12. Against the preceding compound, the pIC50 is 0.27 log units lower.

Compound `Cc1ccc(CCC2CN(C(=O)N3CC[C@@H]4OCC(=O)N[C@@H]4C3)C2)c(C(F)(F)F)c1` [Example 219] had a negative-log IC50 (pIC50) of 8.70. This pIC50 lies 1.58 log units higher than the previous one.

Compound `Cc1ccc(COC2CN(C(=O)N3CC[C@@H]4OCC(=O)N[C@@H]4C3)C2)cc1C(F)(F)F` [Example 294] had a negative logarithm of the IC50 (pIC50) of 5.52. This pIC50 lies 3.18 log units lower than the previous one.

In turn, `CC1CN(c2cccc(OC3CN(C(=O)N4CC[C@@H]5OCC(=O)N[C@@H]5C4)C3)c2Cl)C1` [Example 272, (+)-(4aR,8aS)-6-[3-[2-Chloro-3-(3-methylazetidin-1-yl)phenoxy]azetidine-1-carbonyl]-4,4a,5,7,8,8a-hexahydropyrido[4,3-b][l,4]oxazin-3-one] showed a negative-log IC50 (pIC50) of 7.03.

`O=C1CO[C@H]2CCN(C(=O)N3CCC(Oc4ccc(C(F)(F)F)c(-n5cccn5)c4)CC3)C[C@H]2N1` [Example 209] gave a pIC50 of 7.13. The pIC50 values of the last two compounds are within 0.2 log units of each other.

In the case of `O=C1CO[C@H]2CCN(C(=O)N3CC(OCc4cc(Cl)ccc4Cl)C3)C[C@H]2N1` [Example 225], the pIC50 was 8.15.

Compound `O=C1CO[C@H]2CCN(C(=O)N3CC(Oc4ccc(C(F)(F)F)c(N5CC6(CCCCO6)C5)c4)C3)C[C@H]2N1` [Example 270, (+)-(4aR,8aS)-6-[3-[3-(5-oxa-2-azaspiro[3.5]nonan-2-yl)-4-(trifluoromethyl)phenoxy]azetidine-1-carbonyl]-4,4a,5,7,8,8a-hexahydropyrido[4,3-b][l,4]oxazin-3-one] gave a pIC50 of 7.21.

In turn, `O=C1CO[C@H]2CCN(C(=O)N3CC(Oc4ccc(C(F)(F)F)c(Cl)c4)C3)C[C@H]2N1` [Example 261] had a negative logarithm of the IC50 (pIC50) of 7.32.

The compound `O=C1CO[C@H]2CCN(C(=O)N3CC(Oc4ccc(C(F)(F)F)c(C5CC5)c4)C3)C[C@H]2N1` [Example 260] showed a negative-log IC50 (pIC50) of 7.74.

`O=C1CO[C@H]2CCN(C(=O)N3CCC(Oc4ccc(Cl)c(-n5cccn5)c4)CC3)C[C@H]2N1` [Example 205]: the negative-log IC50 (pIC50) is 7.07.

Consider `O=C1CO[C@H]2CCN(C(=O)N3CC(OCc4ccc(C(F)(F)F)cn4)C3)C[C@H]2N1` [Example 230], for which the pIC50 is 7.14.

`O=C1CO[C@H]2CCN(C(=O)N3CC(Oc4ccc(C(F)(F)F)c(N5CC(F)(F)C5)c4)C3)C[C@H]2N1` [Example 267, (+)-(4aR,8aS)-6-[3-[3-(3,3-Difluoroazetidin-1-yl)-4-(trifluoromethyl)phenoxy]azetidine-1-carbonyl]-4,4a,5,7,8,8a-hexahydropyrido[4,3-b][l,4]oxazin-3-one] showed a pIC50 of 7.38.

With `O=C1CO[C@H]2CCN(C(=O)N3CC(OCc4ccc(Cl)c(Cl)c4)C3)C[C@H]2N1` [Example 224], the pIC50 was 8.52.

The compound `Cc1cccc(COC2CN(C(=O)N3CC[C@@H]4OCC(=O)N[C@@H]4C3)C2)c1C` [Example 290] showed a negative-log IC50 (pIC50) of 7.36. This pIC50 lies 1.16 log units lower than the previous one.

The compound `O=C1CO[C@H]2CCN(C(=O)N3CC(Oc4cccc(N5CC6(CCC6)C5)c4Cl)C3)C[C@H]2N1` [Example 271, (+)-(4aR,8aS)-6-[3-[3-(2-Azaspiro[3.3]heptan-2-yl)-2-chloro-phenoxy]azetidine-1-carbonyl]-4,4a,5,7,8,8a-hexahydropyrido[4,3-b][1,4]oxazin-3-one] had a negative-log IC50 (pIC50) of 7.70. This pIC50 lies 0.34 log units higher than the previous one.

In turn, `O=C1CO[C@H]2CCN(C(=O)N3CCC(Oc4ccc(Cl)c(N5CCOCC5)c4)CC3)C[C@H]2N1` [Example 121] showed a negative logarithm of the IC50 (pIC50) of 6.82.

`O=C1CO[C@H]2CCN(C(=O)N3CCCC(COc4ccc(F)cc4Cl)CC3)C[C@H]2N1` (stereo partly drawn) [Example 140] showed a pIC50 of 7.23. This pIC50 lies 0.41 log units higher than the previous one.

As for `CC(=O)c1cc(C(F)(F)F)ccc1CCC1CN(C(=O)N2CC[C@@H]3OCC(=O)N[C@@H]3C2)C1` [Example 220], the pIC50 is 8.52. Compared with the last compound, the pIC50 is 1.29 log units higher.

As to `N#Cc1cc(C(F)(F)F)ccc1OC1CCN(C(=O)N2CC[C@@H]3OCC(=O)N[C@@H]3C2)CC1` [Example 123], the pIC50 is 7.09.

The compound `CC1(F)CN(c2cc(OC3CN(C(=O)N4CC[C@@H]5OCC(=O)N[C@@H]5C4)C3)ccc2C(F)(F)F)C1` [Example 268, (+)-(4aR,8aS)-6-[3-[3-(3-Fluoro-3-methyl-azetidin-1-yl)-4-(trifluoromethyl)phenoxy]azetidine-1-carbonyl]-4,4a,5,7,8,8a-hexahydropyrido[4,3-b][l,4]oxazin-3-one] showed a pIC50 of 7.55.

Compound `O=C1CO[C@H]2CCN(C(=O)N3CCC(Oc4ccc(C(F)(F)F)c(Cl)c4)CC3)C[C@H]2N1` [Example 255] showed a pIC50 of 8.00.

On to `O=C1CO[C@H]2CCN(C(=O)N3CC(Oc4cccc(Br)c4Cl)C3)C[C@H]2N1` [Example 258], for which the negative-log IC50 (pIC50) is 7.32.

The compound `O=C1CO[C@H]2CCN(C(=O)N3CC(/C=C/c4c(F)cccc4C(F)(F)F)C3)C[C@H]2N1` [Example 289] had a pIC50 of 8.52.

In the case of `C[C@H]1[C@H](Oc2cc(C(F)(F)F)ccc2Br)CCN1C(=O)N1CC[C@@H]2OCC(=O)N[C@@H]2C1` [Example 248], the negative logarithm of the IC50 (pIC50) was 6.22.

The compound `N#Cc1cc(OC2CCN(C(=O)N3CC[C@@H]4OCC(=O)N[C@@H]4C3)CC2)ccc1C(F)(F)F` [Example 262] had a pIC50 of 6.74.

In turn, `O=C1CO[C@H]2CCN(C(=O)N3CCC(Cc4c(F)cc(C(F)(F)F)cc4F)CC3)C[C@H]2N1` [Example 211] showed a negative logarithm of the IC50 (pIC50) of 7.77.

In turn, `O=C1CO[C@H]2CCN(C(=O)N3CCC(COc4cccc(Cl)c4)C3)C[C@H]2N1` (stereo partly drawn) [Example 90] gave a negative logarithm of the IC50 (pIC50) of 6.77.

As to `O=C1CO[C@H]2CCN(C(=O)N3CCC(Oc4cccc(C(F)(F)F)c4Cl)CC3)C[C@H]2N1` [Example 257], the pIC50 is 7.85.

`O=C1CO[C@H]2CCN(C(=O)N3CC(Oc4ccc(Cl)c(C(F)(F)F)c4)C3)C[C@H]2N1` [Example 204] showed a pIC50 of 7.00.

For the compound `Cc1c(COC2CN(C(=O)N3CC[C@@H]4OCC(=O)N[C@@H]4C3)C2)cccc1C(F)(F)F` [Example 250], the pIC50 was 8.10.

Consider `O=C1CO[C@H]2CCN(C(=O)N3CCC(Oc4ccc(C(F)(F)F)c(N5CCOCC5)c4)CC3)C[C@H]2N1` [Example 206], for which the pIC50 was 7.64.

In turn, `COc1cc(COC2CN(C(=O)N3CC[C@@H]4OCC(=O)N[C@@H]4C3)C2)ccc1C(F)(F)F` [Example 88] had a negative-log IC50 (pIC50) of 8.30.
